Results on 3 compounds are retold here after patent US20250282820A1, “PEPTIDE COMPLEX HAVING TRKB BINDING ACTIVITY” (PEPTIDREAM INC, priority 2022, published 2025).

*1 amine or outer side, *2 acyl side, *3 side chain or, on linkers, in order; H or OH if unused. Where a SMILES comes first, the peptide text is derived from it. Bridges are numbered along the chain shown (N, C = ends). Roman numbers before positions name the chains, in order. [ ]: non-standard residue; d: D form. ξ: configuration not given here. CO(CH2CH2O)13CH2CH2CO = O=C(CCOCCOCCOCCOCCOCCOCCOCCOCCOCCOCCOCCOCCOCCC(=O)[*:2])[*:1]; X4 = NC(=O)C(CCCCNC(=O)CCOCCC(=O)[*:1])NC(=O)CCOCCOCCOCCOCCOCCCCCOCCOCCN[*:2]; X3 = CC(C)[C@H](CC(=O)[C@H](Cc1cccnc1)N[*:1])C(=O)[*:2]; PEG8 = NCCOCCOCCOCCOCCOCCOCCOCCOCCC(=O)O; 3Pal = N[C@@H](Cc1cccnc1)C(=O)O; Thr(3ξ) = CC(O)[C@H](N)C(=O)O; ξP = O=C(O)C1CCCN1; ξC = NC(CS)C(=O)O

Common to all, as to format: cell-based
The target in experiment [1] is T1, TrkB (CellSensor TrkB-NFAT-bla CHO-K1 Cell) (Homo sapiens, UniProt Q16620).
T1 construct: host or cells: CHO-K1 (CellSensor TrkB-NFAT-bla CHO-K1)
T1 sequence (Q16620 32-822): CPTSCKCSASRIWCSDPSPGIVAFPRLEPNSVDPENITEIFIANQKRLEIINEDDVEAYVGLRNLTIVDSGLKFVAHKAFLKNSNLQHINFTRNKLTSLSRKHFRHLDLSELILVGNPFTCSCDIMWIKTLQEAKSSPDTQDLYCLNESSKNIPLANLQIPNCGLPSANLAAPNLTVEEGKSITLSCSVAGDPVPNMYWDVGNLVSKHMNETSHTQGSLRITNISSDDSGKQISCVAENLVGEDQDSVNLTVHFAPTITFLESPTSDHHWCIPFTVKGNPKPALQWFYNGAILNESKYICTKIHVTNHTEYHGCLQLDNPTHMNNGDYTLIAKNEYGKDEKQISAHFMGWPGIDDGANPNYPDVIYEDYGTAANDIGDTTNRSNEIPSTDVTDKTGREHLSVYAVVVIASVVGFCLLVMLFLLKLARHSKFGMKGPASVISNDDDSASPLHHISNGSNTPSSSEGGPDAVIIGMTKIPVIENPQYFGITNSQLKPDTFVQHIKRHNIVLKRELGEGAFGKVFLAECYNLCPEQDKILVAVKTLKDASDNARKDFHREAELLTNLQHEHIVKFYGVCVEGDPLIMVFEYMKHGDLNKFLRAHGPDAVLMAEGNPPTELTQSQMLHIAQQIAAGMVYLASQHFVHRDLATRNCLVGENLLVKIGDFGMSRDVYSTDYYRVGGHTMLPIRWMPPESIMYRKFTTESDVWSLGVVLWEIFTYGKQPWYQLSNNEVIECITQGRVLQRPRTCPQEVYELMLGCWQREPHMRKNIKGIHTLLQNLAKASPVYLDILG
Description: NFAT transcriptional reporter assay for TrkB agonist activity. Conditions: class = peptide concentration giving 50% or more activity; BDNF maximum signal = 100%, no stimulation = 0%; 5 hours culture. As for the experimental part: To evaluate the TrkB activation potency of the TrkB agonist peptide of the present invention, transcriptional activity was examined using transcriptional reporters. The CellSensor (registered trademark) TrkB-NFAT-bla CHO-K1 Cell (Invitrogen) used in the AlphaLISA assay was cultured in the medium above. After the cells were detached using Accutase (Innovative Cell Technologies), the cells were suspended in an assay medium, wherein Blasticidin and Zeocin were removed, then seeded into a 96-well plate for adherent cultures at 12,500 cells per well and cultured overnight. Then, BDNF or a peptide was added thereto, and the cells were further cultured in a CO2 incubator for 5 hours. After the 96-well plate was removed from the incubator and brought to room temperature, a detection reagent (LiveBLAzer (registered trademark)-FRET B/G (CCF4-AM) Substrate Mixture) was added while protected from the light, and the 96-well plate was incubated while protected from the light in a moisture box with a lid for 2 hours. For signal detection, a EnVision 2104 Multilabel Plate Reader (PerkinElmer) was used, and the ratio of fluorescence emission value (460 nm/535 nm) was calculated. The obtained numerical values were analyzed with GraphPad Prism, and the activity (%) was calculated with the maximum value of the signals induced by BDNF as 100% and a signal with no stimulation as 0%. The peptide with 50% or more activity when 1 nM of the peptide was added was evaluated as A, the peptide with 50% or more activity when 10 nM of the peptide was added was evaluated as B, and the peptide with 50% or more activity when 100 nM of the peptide was added was evaluated as C. Those that were not evaluated were listed as not tested.
The BDNF was evaluated at 7 points (0.0024 nM to 10 nM) from 10 nM using 4-fold dilutions.
For dimer structures Nos. 1 to 3, the peptide was evaluated at 1 nM, 10 nM, and 100 nM, and, for other dimer structure numbers, the peptide was evaluated at 0.1 nM, 1 nM, and 10 nM. When creating the concentration dependence curve, the BDNF and the peptides were evaluated at […] (0.006 nM to 100 nM) […] using 4-fold dilutions.

Experiment [2] addresses T1, TrkB (CellSensor TrkB-NFAT-bla CHO-K1 Cell). Description: pERK1/2 AlphaLISA assay (phosphorylation of ERK) for TrkB agonist activity. Conditions: class = peptide concentration giving 50% or more activity; BDNF maximum signal = 100%, no stimulation = 0%; 15 minutes of stimulation. As for the experimental part:
To evaluate the TrkB activation potency of the TrkB agonist peptide of the present invention, the phosphorylation of ERK was examined. CellSensor (registered trademark) TrkB-NFAT-bla CHO-K1 Cell (Invitrogen) was cultured in DMEM, high glucose, GlutaMAX (registered trademark) Supplement, and pyruvate (Thermo), comprising 10% FBS (Thermo) and 1× Non-essential amino acids (Thermo), 25 mM HEPES (Thermo), 50 ug/mL Gentamicin, 5 ug/mL Blasticidin (Thermo), and 200 ug/mL Zeocin (Thermo). After the cells were detached using Accutase (Innovative Cell Technologies), they were seeded into a 96-well plate for adherent cultures at 12,500 cells per well and cultured overnight. The next day, for starvation, the culture solution above was replaced with a nutrient starvation medium comprising 0.1% BSA (Sigma), wherein FBS, Blasticidin, and Zeocin were removed from the culture medium, and culturing was performed for 4 hours. Thereafter, Recombinant Human BDNF Protein (R&D Systems) or a peptide was added, and after 15 minutes of stimulation, cells were lysed in the Lysis Buffer provided with the AlphaLISA SureFire Ultra p-Erk1/2 (Thr202/Tyr204) assay kit (PerkinElmer). The assay was performed according to the kit protocol. The signals were detected using a SpectraMax Paradigm Multi-Mode Microplate Reader (Molecular Devices). The obtained signals were analyzed with GraphPad Prism, and the activity (%) was calculated with the maximum value of the signals induced by BDNF as 100% and a signal with no stimulation as 0%. The peptide with 50% or more activity when 1 nM of the peptide was added was evaluated as A, and the peptide with 50% or more activity when 10 nM of the peptide was added was evaluated as B.
The BDNF was evaluated at 8 points (0.0006 nM to 10 nM) from 10 nM using 4-fold dilutions.
For dimer structures Nos. 1 to 3, the peptide was evaluated at 1 nM, 10 nM, and 100 nM, and, for other dimer structure numbers, the peptide was evaluated at 0.1 nM, 1 nM, and 10 nM. When creating the concentration dependence curve, the BDNF and the peptides were evaluated at 8 points (0.006 nM to 100 nM) from 100 nM using 4-fold dilutions.
(In Alpha technology, singlet oxygen from a donor bead excites a nearby acceptor bead.)

For a further experiment, the target named is TrkB (Homo sapiens, UniProt Q16620). Description: PathHunter eXpress TrkB Functional Assay (phosphorylation of TrkB). Conditions: stimulation for 3 hours. As for the experimental part:
To evaluate the TrkB activation potency of the TrkB agonist peptide of the present invention, the phosphorylation of TrkB was examined. The PathHunter (registered trademark) eXpress TrkB Functional Assay kit (DiscoverX; cells, 96-well plate, medium, and detection reagents included) was used and the evaluation was performed according to the attached protocols. The frozen cells were thawed and suspended in the medium, then seeded into a 96-well plate at 10,000 cells per well and incubated for 48 hours. Thereafter, Recombinant Human BDNF Protein (R&D Systems) or a peptide was added, and after stimulation for 3 hours, a detection reagent was added. The reaction was performed while protected from the light at room temperature for 60 minutes, and luminescent signals were measured using a SpectraMax Paradigm Multi-Mode Microplate Reader (Molecular Devices). The obtained signals were analyzed with GraphPad Prism, and the activity (%) was calculated with the maximum value of the signals induced by BDNF as 100% and a signal with no stimulation as 0%.
The BDNF was evaluated at 8 points (0.006 nM to 100 nM) from 100 nM using 4-fold dilutions. The peptide was evaluated in the measurement ranges A to C shown below. • Measurement range A=6 points from 100 nM using 5-fold dilutions (0.032 nM to 100 nM) • Measurement range B=8 points from 100 nM using 4-fold dilutions (0.006104 nM to 100 nM) • Measurement range C=4 points from 10 nM using 10-fold dilutions (0.01 nM to 10 nM)

TrkB, sequence (Q16620 32-822): as above

For `CC(C)C[C@@H]1NC(=O)[C@H](CO)NC(=O)[C@H](Cc2ccc(O)cc2)NC(=O)[C@H]([C@@H](C)O)NC(=O)[C@@H]2CCCN2C(=O)[C@H](Cc2c[nH]c3ccccc23)NC(=O)[C@H](Cc2cccnc2)NC(=O)[C@H](Cc2ccc(O)cc2)NC(=O)[C@@H]2CCCN2C(=O)[C@H](CC(C)C)NC(=O)[C@H](Cc2ccccc2)NC(=O)CSC[C@@H](C(=O)NCC(=O)NCCOCCOCCOCCOCCOCCOCCOCCOCCC(=O)NCCCC[C@H](NC(=O)CCOCCOCCOCCOCCOCCOCCOCCOCCNC(=O)CNC(=O)[C@@H]2CSCC(=O)N[C@@H](Cc3ccccc3)C(=O)N[C@@H](CC(C)C)C(=O)N3CCC[C@H]3C(=O)N[C@@H](Cc3ccc(O)cc3)C(=O)N[C@@H](Cc3cccnc3)C(=O)N[C@@H](Cc3c[nH]c4ccccc34)C(=O)N3CCC[C@H]3C(=O)N[C@@H]([C@@H](C)O)C(=O)N[C@@H](Cc3ccc(O)cc3)C(=O)N[C@@H](CO)C(=O)N[C@@H](CC(C)C)C(=O)N[C@@H](Cc3cccnc3)C(=O)N[C@@H](C(C)C)C(=O)N[C@@H](Cc3c[nH]c4ccccc34)C(=O)N2)C(N)=O)NC(=O)[C@H](Cc2c[nH]c3ccccc23)NC(=O)[C@H](C(C)C)NC(=O)[C@H](Cc2cccnc2)NC1=O` [Dimer Structure No. 2] (I: {CH2CO}-FLPY[3Pal]WPTYSL[3Pal]VWCG[PEG8]K-NH2 / II: {CH2CO}-FLPY[3Pal]WPTYSL[3Pal]VWCG[PEG8]; amide I:18-II:C; thioether I:N-I:15, II:N-II:15), in experiment [1], the “NFAT Assay Results” value is given as “C (the peptide with 50% or more activity when 100 nM of the peptide was added was evaluated as C)”. The “pERK (aLISA) Assay Results” value in experiment [2] was “B (the peptide with 50% or more activity when 10 nM of the peptide was added was evaluated as B)”.
The corresponding values for `CC(=O)NCCCC[C@@H]1NC(=O)[C@H](CO)NC(=O)[C@H](Cc2ccc(O)cc2)NC(=O)[C@H]([C@@H](C)O)NC(=O)[C@@H]2CCCN2C(=O)[C@H](Cc2c[nH]c3ccccc23)NC(=O)[C@H](Cc2cccnc2)NC(=O)[C@H](Cc2ccc(O)cc2)NC(=O)[C@@H]2CCCN2C(=O)[C@H](CC(C)C)NC(=O)[C@H](Cc2ccccc2)NC(=O)CSCC(C(=O)NCC(=O)NCCOCCOCCOCCOCCOCCOCCOCCOCCC(=O)N[C@@H](CCCCNC(=O)CCOCCC(=O)NCCCCC(NC(=O)CCOCCOCCOCCOCCOCCCCCOCCOCCNC(=O)CNC(=O)C2CSCC(=O)N[C@@H](Cc3ccccc3)C(=O)N[C@@H](CC(C)C)C(=O)N3CCC[C@H]3C(=O)N[C@@H](Cc3ccc(O)cc3)C(=O)N[C@@H](Cc3cccnc3)C(=O)N[C@@H](Cc3c[nH]c4ccccc34)C(=O)N3CCC[C@H]3C(=O)N[C@@H](C(C)O)C(=O)N[C@@H](Cc3ccc(O)cc3)C(=O)N[C@@H](CO)C(=O)N[C@@H](CCCCNC(C)=O)C(=O)N[C@@H](Cc3cccnc3)C(=O)N[C@@H](C(C)C)C(=O)N[C@@H](CCC(=O)O)C(=O)N2)C(N)=O)C(N)=O)NC(=O)[C@H](CCC(=O)O)NC(=O)[C@H](C(C)C)CC(=O)[C@H](Cc2cccnc2)NC1=O` (some centres unmarked) [Dimer Structure No. 40] (I: {CH2CO}-FLPY[3Pal]WPTYSK(Ac)[X3]E[ξC]G[PEG8]K-NH2 / II: {CH2CO}-FLPY[3Pal]WP[Thr(3ξ)]YSK(Ac)[3Pal]VE[ξC]G; linker I:17-II:C via X4; thioether I:N-I:14, II:N-II:15) are “B (the peptide with 50% or more activity when 10 nM of the peptide was added was evaluated as B)” and “B (the peptide with 50% or more activity when 10 nM of the peptide was added was evaluated as B)”.
In general, Emax refers to the greatest response seen or fitted, relative to the assay's reference. Broadly, the EC50 is the midpoint of the concentration-response curve. A low value points to a more potent agent. Regarding `CC(C)[C@@H]1NC(=O)[C@H](Cc2cccnc2)NC(=O)[C@H](CCC(=O)O)NC(=O)[C@H](CO)NC(=O)[C@H](Cc2ccc(O)cc2)NC(=O)[C@H]([C@@H](C)O)NC(=O)C2CCCN2C(=O)[C@H](Cc2c[nH]c3ccccc23)NC(=O)[C@H](Cc2cccnc2)NC(=O)[C@H](Cc2ccc(O)cc2)NC(=O)[C@@H]2CCCN2C(=O)[C@H](CO)NC(=O)[C@H](Cc2ccccc2)NC(=O)CSC[C@@H](C(=O)NCC(=O)N[C@@H](CCCCNC(=O)CCOCCOCCOCCOCCOCCOCCOCCOCCOCCOCCOCCOCCOCCC(=O)NCCCC[C@H](NC(=O)CNC(=O)[C@@H]2CSCC(=O)N[C@@H](Cc3ccccc3)C(=O)N[C@@H](CO)C(=O)N3CCC[C@H]3C(=O)N[C@@H](Cc3ccc(O)cc3)C(=O)N[C@@H](Cc3cccnc3)C(=O)N[C@@H](Cc3c[nH]c4ccccc34)C(=O)N3CCC[C@H]3C(=O)N[C@@H]([C@@H](C)O)C(=O)N[C@@H](Cc3ccc(O)cc3)C(=O)N[C@@H](CO)C(=O)N[C@@H](CCC(=O)O)C(=O)N[C@@H](Cc3cccnc3)C(=O)N[C@@H](C(C)C)C(=O)N[C@@H](CCC(=O)O)C(=O)N2)C(N)=O)C(N)=O)NC(=O)[C@H](CCC(=O)O)NC1=O` (some centres unmarked) [Dimer Structure No. 48] (I: {CH2CO}-FSPY[3Pal]WPTYSE[3Pal]VECGK-NH2 / II: {CH2CO}-FSPY[3Pal]W[ξP]TYSE[3Pal]VECGK-NH2; linker I:17-II:17 via CO(CH2CH2O)13CH2CH2CO; thioether I:N-I:15, II:N-II:15), the “NFAT Assay Results” value in experiment [1] is “B (the peptide with 50% or more activity when 10 nM of the peptide was added was evaluated as B)”. Besides, the “pERK (aLISA) Assay Results” value in experiment [2] is “B (the peptide with 50% or more activity when 10 nM of the peptide was added was evaluated as B)”. This compound registered an Emax on TrkB (maximum signal induced by BDNF = 100%) of 89%. The compound further registered an EC50 at TrkB of 0.8 to 4 nM.
